Measured values reported in patent US20140329863A1 (priority 2011, published 2014).
Entries after “also recorded” stand apart in the source; their conditions may differ. Like-named read-outs stand apart in the source and are kept apart here.

Legend:
[1] = Hepatic microsome stability, mouse; type: in vitro ADME; conditions: mouse liver microsomes
Description: (§1) Hepatic microsomal stability assays were performed in two stages. In the first set of experiments, aliquots of the DMSO solute stocks were diluted into ACN and then into assay buffer (PBS, pH 7.4, ±0.05% PS80). Final experimental solute concentrations were 1 μM (0.6% ACN, 0.01% DMSO). Commercially available mouse, rat, or human hepatic microsomes (˜0.5 mg/ml final concentration), and NADPH (1 mM) or PBS were added. The resulting mixture was incubated at 37° C., and aliquots removed at 0, 1, 10, 30 and 60 min, then quenched with ACN containing 2 μM carbamazepine (internal standard). […] Duplicate incubations were run for each time-point. The percentage of solute remaining at the end of the incubation was used to determine solute half-life.
(§2) These were diluted 500-fold into 1 mL of microsomal incubation mixture to yield a final concentration of 1 μM. The incubation mixture was composed of 100 mM phosphate buffer, pH 7.4, and NADPH regenerating system (BD Biosciences NADPH Regenerating System Solutions A & B). This mixture was preincubated at 37° C. for 5 min in an Eppendorf Thermo mixer, and the reaction initiated by addition of 0.5 mg (25 μl of a 20 mg/mL solution) of liver microsomes. Aliquots (100 μl) were withdrawn at 0, 5, 15, 30, and 60 min, and added to 100 μl ACN containing internal standard. […] The percentage of solute remaining at the end of the incubation was used to determine species-specific values of scaled intrinsic clearance, hepatic clearance, and predicted hepatic extraction based upon the calculations below {Obach, 1999 #9097}.
(§3) for which mg microsomal protein/gm liver was 45 for all species, and gm liver/kg body weight were 32 for dog, 88 for mouse, 40 for rat and 25 for human.
(§4) Clh=(Q*Clint,scaled)/(Q+Clint,scaled)
(§5) for which Q was hepatic blood flow; values of 90 ml/min/kg for mouse, 66 ml/min/kg for rat, and 21 ml/min/kg for human were used.
(§6) for which ER estimates the amount of compound cleared during a single pass through the liver (Low ER<0.3, moderate ER 0.3-0.7, high ER>0.7).

[2] = Hepatic microsome stability, human; type: in vitro ADME
Description: as §1, §2, §3, §4, §5, §6

[3] = system: PrP^Sc in dividing ScN2a-cl3 cells; type: cell-based, mouse
[4] = system: PrP^Sc in dividing ScN2a-c13 cells; conditions: read-out: EC50 (ELISA), reduction of PrP^Sc load; dividing ScN2a-c13 cells
[5] = Hepatic microsomal stability, rat; conditions: […]
[6] = Hepatic microsomal stability, mouse; conditions: for half-life at 1 μM: CD-1, mouse, pH 7.4
[7] = Hepatic microsomal stability, human; conditions: for half-life at 1 μM: human, pH 7.4
[8] = Tolerability / toxicity on repeated dosing in mice; conditions: chronic studies in mice, wide range of doses
[9] = Multidose (three-day) pharmacokinetics in liquid diet in FVB mice; conditions: for concentration at 3 days: FVB, mouse, in vivo, three-day dosing in liquid diet

SMILES: Cc1cccc(Nc2nc(-c3ccc(-c4ccccc4)cc3)cs2)n1 [IND24, (4-Biphenyl-4-yl-thiazol-2-yl)-(6-methyl-pyridin-2-yl)-amine]
- metabolic stability (in words) [1]: stable; also recorded: excellent stability
- half-life at 1 μM ([1]; pH 7.4, 1 μM): > 1 h
- metabolic stability (in words) ([2]; human liver microsomes): stable; also recorded: excellent stability
- half-life at 1 μM ([2]; pH 7.4, human liver microsomes, 1 μM): > 1 h
- metabolism in HLM incubations ([2]; pooled human liver microsomes, 1 μM, 60 min, with or without CYP inhibitors): very little metabolism
- EC50 ([3]; AMT analogs tested for potency): 1270 nM
- EC50 ([3]; Table 29, 2-AMT analogs tested for potency, usually n = 3 or more): 1270 nM
- EC50 [4]: 1270 nM
- half-life at 1 μM ([5]; Sprague-Dawley, rat, pH 7.4): > 1 h
- % remaining after a 60-min incubation, Rat ([5]; 60-min incubation): 90%
- half-life at 1 μM ([6]; liver microsomes): > 1 h
- half-life at 1 μM ([6]; mouse liver microsomes): > 1 h
- half-life at 1 μM ([6]; female, liver microsomes): 4.83 h
- half-life at 1 μM ([6]; male, liver microsomes): 3.17 h
- % remaining after a 60-min incubation, Mouse ([6]; mouse liver microsomes, 60-min incubation): 89%
- half-life at 1 μM ([7]; both, liver microsomes): 23.3 h
- % remaining after a 60-min incubation, Human ([7]; human liver microsomes, 60-min incubation): 105%
- half-life at 1 μM ([7]; human liver microsomes): > 1 h
- half-life at 1 μM ([7]; liver microsomes): > 1 h
- tolerability [8]: well tolerated
- concentration at 3 days ([9]; 40 mg/kg, Brain Concentration (Css), brain): 8.7 ± 1.46 µM
- concentration at 3 days ([9]; 40 mg/kg, Plasma Concentration (Css), plasma): 8.19 ± 8.09 µM
- concentration at 3 days ([9]; 80 mg/kg, Brain Concentration (Css), brain): 19.3 ± 2.28 µM
- concentration at 3 days ([9]; 80 mg/kg, Plasma Concentration (Css), plasma): 5.55 ± 1.18 µM
- concentration at 3 days ([9]; 130 mg/kg, Brain Concentration (Css), brain): 31.8 ± 5.46 µM
- concentration at 3 days ([9]; 130 mg/kg, Plasma Concentration (Css), plasma): 11.7 ± 4.85 µM
- concentration at 3 days ([9]; 210 mg/kg, Brain Concentration (Css), brain): 37.4 ± 9.06 µM
- concentration at 3 days ([9]; 210 mg/kg, Plasma Concentration (Css), plasma): 18.9 ± 20.5 µM
- Brain concentrations ([9]; female FVB mice, 75 mg/kg, formulations containing 0.125-1.25% (v/v) PEG400): > 8 µM
